Assay results reported in US9376424B2, “Methods for treating post traumatic stress disorder” (AZEVAN PHARMACEUTICALS, INC., priority 2010, dated 2016).
pIC50, pKi: −log10 of the molar value.

How the values were obtained:
[1] = target: T1, human V1a receptor (Homo sapiens, UniProt P37288); assay: Human vasopressin V1a receptor binding assay (3H-AVP competition, hV1a cell line); details: CHO cells expressing human V1a, 1 nM 3H-AVP; for pKi: read-out: V1a Ki; for pIC50: read-out: V1a Binding Affinity IC50
T1 construct: host or cells: CHO cells
T1 sequence (P37288 whole entry): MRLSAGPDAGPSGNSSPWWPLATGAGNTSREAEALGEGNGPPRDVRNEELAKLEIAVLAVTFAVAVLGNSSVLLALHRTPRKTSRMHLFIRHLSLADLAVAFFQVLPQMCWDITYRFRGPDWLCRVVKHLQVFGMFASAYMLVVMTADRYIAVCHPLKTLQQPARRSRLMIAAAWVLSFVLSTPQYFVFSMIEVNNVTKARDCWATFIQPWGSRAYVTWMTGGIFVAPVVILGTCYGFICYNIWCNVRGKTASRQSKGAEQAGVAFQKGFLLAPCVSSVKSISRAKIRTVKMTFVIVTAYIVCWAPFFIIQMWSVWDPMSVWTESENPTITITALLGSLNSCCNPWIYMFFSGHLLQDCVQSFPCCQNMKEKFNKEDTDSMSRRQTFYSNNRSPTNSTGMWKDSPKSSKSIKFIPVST
Experimental: Human vasopression V1a receptor binding assay. A cell line expressing the human V1a receptor in CHO cells (henceforth referred to as the hV1a cell line) was obtained from Dr. Michael Brownstein, NIMH, Bethesda, Md., USA. The hV1a cDNA sequence is described by Thibonnier et al., Journal of Biological Chemistry, 269, 3304-3310 (1994), and the expression method was the same as described by Morel et al. (1992). The hV1a cell line was grown in alpha-MEM with 10% fetal bovine serum and 250 ug/ml G418 (Gibco, Grand Island, N.Y., USA). For competitive binding assay, hV1a cells were plated into 6-well culture plate at 1:10 dilution from a confluency flask, and maintained in culture for at least two days. Culture medium was then removed, cells were washed with 2 ml binding buffer (25 mM Hepes, 0.25% BSA, 1×DMEM, PH=7.0). To each well, 990 μl binding buffer containing 1 nM 3H-AVP was added, and followed by 10 μl series diluted Example compounds dissolved in DMSO. […] 100 nM cold AVP (Sigma) was used to assess non-specific binding. Cells were incubated for 45 minutes at 37° C., assay mixture was removed and each well was washed three times with PBS (pH=7.4). 1 ml 2% SDS was added per well and plates were let sit for 30 minutes. The whole content in a well was transferred to a scintillation vial. Each well was rinsed with 0.5 ml PBS which was then added to the corresponding vial. Scintillation fluid (Ecoscint, National Diagnostics, Atlanta, Ga.) was then added at 3 ml per vial. Samples were counted in a liquid scintillation counter (Beckman LS3801). IC50 values were calculated by Prism Curve fitting software.
All of the alkanedioic esters and amides exemplified in the foregoing examples dissolved in DMSO were tested in this assay. Binding curves were generated according to methods described by Thibonnier et al. (1994). [^3H]-AVP was added to the hV1a cell cultures followed by 10-fold dilutions of each test compound.

[2] = tested on: C57B1/6J males; assay: Social Interaction Test after chronic social subjugation; type: in vivo, mouse; details: for Distance (traveled in the interaction zone, difference score Post-Pretest) / Time (in the interaction zone, difference score Post-Pretest): mice after 10 day defeat, daily i.p. for 28 days, AVN246-HCl 2 mg/kg, chlordiazepoxide 10 mg/kg
From the text: Mouse Chronic Subordination Model of Depression. Social stress is a factor in the etiology of several psychopathologies, with individuals differing in vulnerability. Adult male mice are subjected to a model of chronic psychosocial stress in which resident/intruder dyads live chronically in sensory contact and physically interact on a daily basis.
Anti-depressant Effect in the Social Interaction Test. […] A rapid subjugation paradigm in mice lead to diminished social interaction behavior, where the dependent measures are distance traveled and time in the Interaction Zone. […] These observations are consistent with the subordination/social interaction model as a rapid behavioral screen for potential antidepressants. Additional details are described in Berton et al. (2006).
Briefly, C57B1/6J males were defeated daily for 10 days by resident, highly aggressive CF-1 males. After 5 minutes of direct exposure, a perforated plastic partition was inserted into the cage that allowed olfactory and visual contact without physical defeat for the remaining 23 hr 55 min each day. The C57 males were exposed to a different resident male in a different cage each day to increase the stress of the procedure (it was observed that all CF-1 males attacked the intruder each day). At the end of the 10 day defeat procedure, the C57 males were tested in an open field apparatus during the dark phase. A dominant male was caged in an area of the open field apparatus termed the “social interaction zone.” Time and distance traveled in the zone were recorded. The C57 males were then divided randomly among the following treatments: AVN246-HCl (2 mg/kg), saline vehicle (0.45%), or chlordiazepoxide (10 mg/kg). Treatments were given daily (i.p.) for 28 days and the animals were retested. Behavioral changes were determined by calculating difference scores (Post-Pretest) and these scores were analyzed.

SMILES: O=C(NCc1cc(C(F)(F)F)ccc1F)[C@H](CCC(=O)N1CCN(C2CCCCC2)CC1)N1C(=O)[C@@H](N2C(=O)OC[C@@H]2c2ccccc2)[C@H]1/C=C/c1ccccc1 [Example 177]
- pKi [1]: 9.39

SMILES: CN(Cc1cccc(C(F)(F)F)c1)C(=O)[C@@H](CC(=O)N1CCC(N2CCCCC2)CC1)N1C(=O)[C@@H](N2C(=O)OC[C@@H]2c2ccccc2)[C@H]1/C=C/c1cccc(Cl)c1 [Example 247]
- pIC50 [1]: 9.22
- pKi [1]: 9.41

SMILES: O=C(NCc1ccccc1C(F)(F)F)[C@H](CCC(=O)N1CCN(C2CCCCC2)CC1)N1C(=O)[C@@H](N2C(=O)OC[C@@H]2c2ccccc2)[C@H]1/C=C/c1ccccc1 [Example 182]
- pKi [1]: 9.03

SMILES: O=C(NCc1cc(F)cc(C(F)(F)F)c1)[C@H](CCC(=O)N1CCN(C2CCCCC2)CC1)N1C(=O)[C@@H](N2C(=O)OC[C@@H]2c2ccccc2)[C@H]1/C=C/c1ccccc1 [Example 179]
- pKi [1]: 9.29

SMILES: CC(NC(=O)C(CC(=O)N1CCC(N2CCCCC2)CC1)N1C(=O)C(N2C(=O)OCC2c2ccccc2)C1C=Cc1ccccc1)c1ccccc1.Cl (stereo not shown) [AVN246-HCl]
- Distance (traveled in the interaction zone, difference score Post-Pretest) [2]: 22 ± 6
- Time (in the interaction zone, difference score Post-Pretest) [2]: 35 ± 10
- effect on deficits in social interaction produced by chronic subordination ([2]; mice, 28-day treatment regimen): significantly increased both distance traveled and time in the interaction zone

SMILES: O=C(CCC(C(=O)NCc1cccc(C(F)(F)F)c1)N1C(=O)C(N2C(=O)OCC2c2ccccc2)C1C=Cc1ccccc1)NCCN1CCCCC1 (stereo not shown) [Example 87]
- pIC50 [1]: 7.82

SMILES: O=C(NCc1cccc(Cl)c1)[C@H](CCC(=O)N1CCN(C2CCCCC2)CC1)N1C(=O)[C@@H](N2C(=O)OC[C@@H]2c2ccccc2)[C@H]1/C=C/c1ccccc1 [Example 187]
- pKi [1]: 9.18

SMILES: O=C(N[C@@H]1CCCc2ccccc21)[C@H](CCC(=O)N1CCN(C2CCCCC2)CC1)N1C(=O)[C@@H](N2C(=O)OC[C@@H]2c2ccccc2)[C@H]1/C=C/c1cccs1 [Example 255]
- pIC50 [1]: 8.72
- pKi [1]: 8.92

SMILES: O=C(NC1CCc2ccccc21)C(CCC(=O)N1CCN(C2CCCCC2)CC1)N1C(=O)C(N2C(=O)OCC2c2ccccc2)C1C=Cc1ccccc1 (mixture of isomers) [Example 216]
- pIC50 [1]: 8.74
- pKi [1]: 8.95

SMILES: O=C(N[C@@H]1CCCc2ccccc21)[C@H](CCC(=O)N1CCN(C2CCCCC2)CC1)N1C(=O)[C@@H](N2C(=O)OC[C@@H]2c2ccccc2)[C@H]1/C=C/c1ccco1 [Example 254]
- pIC50 [1]: 8.00
- pKi [1]: 8.21

SMILES: CC(C(=O)NCc1cccc(C(F)(F)F)c1)(C(=O)N1CCC(N2CCCCC2)CC1)N1C(=O)[C@@H](N2C(=O)OC[C@@H]2c2ccccc2)[C@H]1/C=C/c1ccccc1 (mixture of isomers) [Example 234, (2RS)-[4-(piperidinyl)piperidinylcarbonyl]-2-methyl-2-[3(S)-(4(S)-phenyloxazolidin-2-on-3-yl)-4(R)-(2-styryl)azetidin-2-on-1-yl]acetic acid N-(3-trifluoromethylbenzyl)amide]
- pIC50 [1]: 8.63
- pKi [1]: 8.84

SMILES: O=C(NCc1cccc(C(F)(F)F)c1)[C@H](CCC(=O)N1CCC(CN2CCCCC2)CC1)N1C(=O)[C@@H](N2C(=O)OC[C@@H]2c2ccccc2)[C@H]1/C=C/c1ccccc1 [Example 120E]
- pIC50 [1]: 8.49
- pKi [1]: 8.71

SMILES: O=C(NCc1cccc(C(F)(F)F)c1)[C@H](CCC(=O)N1CCN(C2CCCCC2)CC1)N1C(=O)[C@@H](N2C(=O)OC[C@@H]2c2ccccc2)[C@H]1/C=C/c1ccccc1 [Example 120H]
- pIC50 [1]: 8.56
- pKi [1]: 8.77

SMILES: O=C(C(COCc1ccccc1)N1C(=O)C(N2C(=O)OCC2c2ccccc2)C1C=Cc1ccccc1)N1CCC(CN2CCCCC2)CC1 (stereo not shown) [Example 233A]
- pKi [1]: 7.94

SMILES: C[C@@H](NC(=O)[C@@H](CC(=O)N1CCC(N2CCCCC2)CC1)N1C(=O)[C@@H](N2C(=O)OC[C@@H]2c2cccc(Cl)c2)[C@H]1/C=C/c1ccccc1)c1ccccc1 [Example 256]
- pIC50 [1]: 8.55
- pKi [1]: 8.77

SMILES: CCCCN(Cc1ccccc1)C(=O)[C@H](CCC(=O)N1CCN(C2CCCCC2)CC1)N1C(=O)[C@@H](N2C(=O)OC[C@@H]2c2ccccc2)[C@H]1/C=C/c1ccccc1 [Example 198]
- pIC50 [1]: ~7.00

SMILES: CNC1=Nc2ccc(Cl)cc2C(c2ccccc2)=[N+]([O-])C1 [CDP, chlordiazepoxide]
- Distance (traveled in the interaction zone, difference score Post-Pretest) [2]: 1.0 ± 5
- Time (in the interaction zone, difference score Post-Pretest) [2]: 0.0 ± 5^

SMILES: O=C(NCc1cc(Cl)cc(Cl)c1)[C@H](CCC(=O)N1CCN(C2CCCCC2)CC1)N1C(=O)[C@@H](N2C(=O)OC[C@@H]2c2ccccc2)[C@H]1/C=C/c1ccccc1 [Example 185]
- pIC50 [1]: 8.90
- pKi [1]: 9.09

SMILES: O=C(NCc1cc(C(F)(F)F)cc(C(F)(F)F)c1)[C@H](CCC(=O)N1CCN(C2CCCCC2)CC1)N1C(=O)[C@@H](N2C(=O)OC[C@@H]2c2ccccc2)[C@H]1/C=C/c1ccccc1 [Example 188]
- pKi [1]: 8.35

SMILES: O=C(NCc1cccc(C(F)(F)F)c1F)[C@H](CCC(=O)N1CCN(C2CCCCC2)CC1)N1C(=O)[C@@H](N2C(=O)OC[C@@H]2c2ccccc2)[C@H]1/C=C/c1ccccc1 [Example 180]
- pKi [1]: 9.70

SMILES: O=C(NCc1cccc(Cl)c1Cl)[C@H](CCC(=O)N1CCN(C2CCCCC2)CC1)N1C(=O)[C@@H](N2C(=O)OC[C@@H]2c2ccccc2)[C@H]1/C=C/c1ccccc1 [Example 176]
- pKi [1]: 9.42

SMILES: O=C(NCc1cccc(C(F)(F)F)c1)C(CC(=O)N1CCN(CCN2CCCC2)CC1)N1C(=O)C(N2C(=O)OCC2c2ccccc2)C1C=Cc1ccccc1 (stereo not shown) [Example 78]
- pIC50 [1]: > 7.00
